Here are results for one compound from patent US20150005347A1, “NITROGEN-CONTAINING HETEROCYCLIC DERIVATIVE HAVING 2-IMINO GROUP AND PEST CONTROL AGENT INCLUDING THE SAME” (MEIJI SEIKA PHARMA CO., LTD., priority 2012, published 2015).

Each structure is given as a SMILES string. Where two headings read alike, the source gives them in different places. Where only a bound is given, the exact number is not on record here.

Type in all cases: in vivo
In data set [1] the test system is Aphis gossypii. As to the kind of experiment: Pest control test of Aphis gossypii, cucumber leaf disk foliar spray. Particulars: Aphis gossypii, foliar. The essentials:
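Cucumber leaf disks (2.0 cm) sprayed with compound at a set concentration in 50% acetone water with 0.05% Tween20, air-dried, then infested with first instar larvae; held at 25 °C, 16 h light/8 h dark. Larval mortality (%) = dead/(survived + dead) × 100; duplicate.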

Data set [2] concerns Frankliniella occidentalis. In words: Pest control test of Frankliniella occidentalis, kidney bean leaf disk foliar spray. Particulars: Frankliniella occidentalis, foliar. The essentials:
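Kidney bean leaf disks (2.8 cm) sprayed with compound in 50% acetone water with 0.05% Tween20, air-dried, then infested with first instar larvae. Held at 25° C, 16 h light/8 h dark; larval mortality (%) calculated from dead versus total larvae, in duplicate.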

Data set [3] relates to housefly instar larvae. As to the kind of experiment: Pest control test of housefly instar larvae, treated bait. The following applies: Musca domestica, read-out: mortality of larvae, chrysalises and adults. How it is done:
Test Example 22 Pest Control Test of Housefly Instar Larvae
Compound 1-20 was blended with an extremely small amount of DMSO, and then the resulting mixture was dissolved in deionized water to adjust the drug solution. 10 ml of the drug solution adjusted to be 30 ppm was added to 10 g of powder in which wheat bran, MF feed (Oriental Yeast Co., Ltd.) and dry yeast had been mixed in a ratio of 25:5:1, and the mixture was mixed well to prepare a bait for housefly instar larvae. A 50 ml Falcon tube was slightly filled with the bait including the compound, and 20 eggs were released thereto. The mouth of the Falcon tube was covered with a mesh-topped lid, and the tube was allowed to stand at 25° C. Twenty days after the drug treatment, the numbers of instar larvae, chrysalises and adults were measured, and the mortality of larvae, chrysalises and adults was calculated by the following equation. The test was performed by repeating each treatment twice.
Mortality of larvae,chrysalises and adults(%)={number of dead larvae,chrysalises and adults/(number of survived larvae,chrysalises and adults+number of dead larvae,chrysalises and adults)}×100

For data set [4], the system named is susceptible populations of Sogatella furcifera. In words: Soil irrigation test, susceptible populations of Sogatella furcifera. The protocol:
(§1) A rice seedling in pot culture was subjected to soil irrigation treatment with a drug solution of the compound of the present invention at a predetermined concentration, which had been prepared so as to be a 10% acetone water. […] Thereafter, the larvae were left to stand in a thermostatic chamber (16 hours of light period-8 hours of dark period) at 25° C. […] The test was performed in duplicate.
(§2) Mortality of larvae(%)={number of dead larvae/(number of survived larvae+number of dead larvae)}×100
Further, for comparison, the test against a populations of Sogatella furcifera which is highly susceptible to fipronil was performed by the same method as described above, and the results thereof are shown in Table 44.
In addition, for the origin of test pests, bugs collected within the city of Odawara in 2010 as the drug resistant Sogatella furcifera, and bugs collected within the city of Chigasaki in 1970 and then successively reared indoors for a long time as the susceptible populations of Sogatella furcifera were used.

For data set [5], the system named is Laodelphax striatella exhibiting drug resistance to fipronil. As to the kind of experiment: Soil irrigation test, Laodelphax striatella exhibiting drug resistance to fipronil. The protocol: Test Example 20 Pest Control Test of Laodelphax striatella
as §1, §2
In addition, for the origin of test pests, bugs collected within the Kumamoto prefecture in 2006 as the drug resistant Laodelphax striatella, and bugs successively reared indoors for a long time as the susceptible populations of Laodelphax striatella were used.

For data set [6], the system named is Nilaparvata lugens exhibiting drug resistance to imidacloprid. As to the kind of experiment: Foliar spray test, Nilaparvata lugens exhibiting drug resistance to imidacloprid. The following applies: 144 h, read-out: mortality of larvae. The protocol: Test Example 16 Pest Control Test of Nilaparvata lugens
A drug solution of the compound of the present invention at a predetermined concentration, which had been prepared so as to be a 50% acetone water (0.05% Tween20 available), was foliar sprayed to a rice seedling in pot culture. […] Thereafter, the larvae were left to stand in a thermostatic chamber (16 hours of light period-8 hours of dark period) at 25° C. […] Test in duplicate.
as §2
Further, for the origin of test pests, insects of Nilaparvata lugens collected outdoors within the Fukuoka prefecture in 2005 were used.

Data set [7] relates to Plutella xylostella. In words: Plutella xylostella control test, cabbage leaf disk foliar spray. Particulars: Plutella xylostella, foliar. Summed up:
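Cabbage leaf disks (5.0 cm) were sprayed with compound in 50% acetone water with 0.05% Tween20, air-dried, then infested with second instar larvae. Disks were held at 25° C under 16 h light/8 h dark, in duplicate. Percent larval mortality was calculated as dead over total larvae.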

Data set [8] concerns Ctenocephalides felis. In words: Pest control test of Ctenocephalides felis on the body surface of a dog. The following applies: 72 h, read-out: mortality of insects. The protocol:
Test Example 26 Pest Control Test of Ctenocephalides felis
Three petri dishes with a diameter of 9 cm and a height of 1 cm were adhered to the back of a dog. Compound 1-20 of the present invention was dissolved in ethanol so as to be 5.35 mg/mL, and the mixture was added dropwise to the body surface of the dog in the petri dish. The petri dish was sufficiently dried, and then twenty insects of Ctenocephalides felis were released thereto. Each dog was housed in a cage and reared under conditions of 10 hours of light period and 14 hours of dark period at 23° C. Three days after the release, the petri dishes were detached therefrom to measure the numbers of living and dead insects of Ctenocephalides felis and blood-sucking individuals, and the mortality of insects was calculated according to the following equation.
Mortality of insects(%)={number of dead insects/(number of survived insects+number of dead insects)}×100

The mark [9] stands for this setting: 72 h, read-out: mortality of larvae.
[10] abbreviates: read-out: % Mortality, Test Example3 Aphis gossypii.
The mark [11] stands for this setting: read-out: % Mortality, Test Example7 Frankliniella occidentalis.
The mark [12] stands for this setting: read-out: % Mortality, Test Example1 Plutella xylostella.

A word on the mortality: it is the share of the test organisms that died.

Turning to `FC(F)(F)C(=S)/N=c1\ccccn1Cc1ccc(Cl)nc1` [Compound 1-20, N-[1-((6-chloropyridin-3-yl)methyl)pyridin-2(1H)-ylidene]-2,2,2-trifluoroethanethioamide], the mortality at 20 ppm was at least 80% in data set [1] (setting [9]); 100% in data set [1] (setting [10]); 50% in data set [2] (setting [11]); at least 80% in data set [6]; 100% in data set [7] (setting [12]). Also, the mortality at 100 ppm was at least 80% in data set [1] (setting [9]); 100% in data set [1] (setting [10]); at least 80% in data set [2] (setting [9]); 80% in data set [2] (setting [11]); at least 80% in data set [7] (setting [9]); 100% in data set [7] (setting [12]). For the same compound, the mortality at 1.25 ppm in data set [1] (setting [10]) turned out to be 75%. Also, the mortality at 5 ppm in data set [1] (setting [10]) was 100%; in data set [7] (setting [12]) it was 50%. Further, the mortality at 500 ppm in data set [2] (setting [9]) is at least 80%. Moreover, the mortality at 30 ppm in data set [3] amounted to 100%. Also, the entries for the “Insecticidal effects against Sogatella furcifera (mortality of larvae %), Susceptible populations six days after the treatment” value in data set [4] (Rate 0.005 mg/pot) and in data set [4] (Rate 0.01 mg/pot) were 75% and 88%, respectively. Besides, the “Insecticidal effects against Laodelphax striatella (mortality of larvae %), Drug resistant populations six days after the treatment” value in data set [5] (Rate 0.005 mg/pot, drug resistant populations) was 79%. In addition, the “insecticidal effects against drug resistant Laodelphax striatella” value in data set [5] (fipronil-resistant) was “high insecticidal effects”. Besides, the “mortality of larvae against drug resistant populations compared with susceptible populations of Laodelphax striatella” value in data set [5] (fipronil-resistant vs susceptible) was “equivalent mortality of larvae”. Besides, the mortality at 5350 µg/mL in data set [8] was 100%.
